Converted amounts (≈) assume the structure as drawn.
How the values were obtained:
[1] = 1.0% DMSO, 24-hour incubation at ambient temperature, maximum theoretical 100 μM; for pH 2 solubility: 0.1N HCl, first value of the cell; for pH 7 solubility: 1×PBS buffer (pH 7.4), second value of the cell
[2] = Solubility in simulated intestinal fluids (FaSSIF/FeSSIF); conditions: 25 °C, thermodynamic from solid
[3] = fasted state simulated intestinal fluid (FaSSIF), fassif
[4] = fed state simulated intestinal fluid (FeSSIF), fessif

| Compound | pH 2 solubility [1] | pH 7 solubility [1] | solubility [2, 3] | solubility [2, 4] |
| --- | --- | --- | --- | --- |
| CC(C)(C#Cc1ccc(-c2ccc(Cl)c3c(N(C(=O)OCCCC(=O)O)S(C)(=O)=O)nn(CC(F)(F)F)c23)c([C@H](Cc2cc(F)cc(F)c2)NC(=O)Cn2nc(C(F)(F)F)c3c2C(F)(F)[C@@H]2C[C@H]32)n1)S(C)(=O)=O [Compound 113] | 1 μM | 5 μM | 0.005 mg/mL (≈ 4.55 µM) | 0.008 mg/mL (≈ 7.28 µM) |
| CC(C)(C#Cc1ccc(-c2ccc(Cl)c3c(N(C(=O)NC(C(=O)O)C(=O)O)S(C)(=O)=O)nn(CC(F)(F)F)c23)c([C@H](Cc2cc(F)cc(F)c2)NC(=O)Cn2nc(C(F)(F)F)c3c2C(F)(F)[C@@H]2C[C@H]32)n1)S(C)(=O)=O [Compound 53, 2-(3-(4-chloro-7-(2-((S)-1-(2-((3bS,4aR)-5,5-difluoro-3-(trifluoromethyl)-3b,4,4a,5-tetrahydro-1H-cyclopropa[3,4]cyclopenta[1,2-c]pyrazol-1-yl)acetamido)-2-(3,5-difluorophenyl)ethyl)-6-(3-methyl-3-(methylsulfonyl)but-1-yn-1-yl)pyridin-3-yl)-1-(2,2,2-trifluoroethyl)-1H-indazol-3-yl)-3-(methylsulfonyl)ureido)malonic acid] | 1 μM | 62 μM | 0.758 mg/mL (≈ 681 µM) | 0.37 mg/mL (≈ 332 µM) |
| CC(C)(C#Cc1ccc(-c2ccc(Cl)c3c(N(C(=O)NC(COC(=O)C(=O)O)COC(=O)C(=O)O)S(C)(=O)=O)nn(CC(F)(F)F)c23)c([C@H](Cc2cc(F)cc(F)c2)NC(=O)Cn2nc(C(F)(F)F)c3c2C(F)(F)[C@@H]2C[C@H]32)n1)S(C)(=O)=O [Compound 37, 2,2′-((2-(3-(4-chloro-7-(2-((S)-1-(2-((3bS,4aR)-5,5-difluoro-3-(trifluoromethyl)-3b,4,4a,5-tetrahydro-1H-cyclopropa[3,4]cyclopenta[1,2-c]pyrazol-1-yl)acetamido)-2-(3,5-difluorophenyl)ethyl)-6-(3-methyl-3-(methylsulfonyl)but-1-yn-1-yl)pyridin-3-yl)-1-(2,2,2-trifluoroethyl)-1H-indazol-3-yl)-3-(methylsulfonyl)ureido)propane-1,3-diyl)bis(oxy))bis(2-oxoacetic acid)] | 3 μM | 18 μM | – | – |
| CC(C)(C#Cc1ccc(-c2ccc(Cl)c3c(N(C(=O)NCCNC(=N)N)S(C)(=O)=O)nn(CC(F)(F)F)c23)c([C@H](Cc2cc(F)cc(F)c2)NC(=O)Cn2nc(C(F)(F)F)c3c2C(F)(F)[C@@H]2C[C@H]32)n1)S(C)(=O)=O [Compound 76] | – | – | 0.007 mg/mL (≈ 6.38 µM) | 0.068 mg/mL (≈ 62 µM) |
| CC(C)(C#Cc1ccc(-c2ccc(Cl)c3c(N(C(=O)CN4CCN(C(=N)N)CC4)S(C)(=O)=O)nn(CC(F)(F)F)c23)c([C@H](Cc2cc(F)cc(F)c2)NC(=O)Cn2nc(C(F)(F)F)c3c2C(F)(F)[C@@H]2C[C@H]32)n1)S(C)(=O)=O [Compound 8, 2-(4-carbamimidoylpiperazin-1-yl)-N-(4-chloro-7-(2-((S)-1-(2-((3bS,4aR)-5,5-difluoro-3-(trifluoromethyl)-3b,4,4a,5-tetrahydro-1H-cyclopropa[3,4]cyclopenta[1,2-c]pyrazol-1-yl)acetamido)-2-(3,5-difluorophenyl)ethyl)-6-(3-methyl-3-(methylsulfonyl)but-1-yn-1-yl)pyridin-3-yl)-1-(2,2,2-trifluoroethyl)-1H-indazol-3-yl)-N-(methylsulfonyl)acetamide] | 57 μM | 6 μM | – | – |
| C[C@H](N)C(=O)OCN(c1nn(CC(F)(F)F)c2c(-c3ccc(C#CC(C)(C)S(C)(=O)=O)nc3[C@H](Cc3cc(F)cc(F)c3)NC(=O)Cn3nc(C(F)(F)F)c4c3C(F)(F)[C@@H]3C[C@H]43)ccc(Cl)c12)S(C)(=O)=O [Compound 27, (N-(4-chloro-7-(2-((S)-1-(2-((3bS,4aR)-5,5-difluoro-3-(trifluoromethyl)-3b,4,4a,5-tetrahydro-1H-cyclopropa[3,4]cyclopenta[1,2-c]pyrazol-1-yl)acetamido)-2-(3,5-difluorophenyl)ethyl)-6-(3-methyl-3-(methylsulfonyl)but-1-yn-1-yl)pyridin-3-yl)-1-(2,2,2-trifluoroethyl)-1H-indazol-3-yl)methylsulfonamido)methyl L-alaninate] | 20 μM | 2 μM | – | – |

Continued, values first:

| pH 2 solubility [1] | pH 7 solubility [1] | solubility [2, 3] | solubility [2, 4] | Compound |
| --- | --- | --- | --- | --- |
| 1 μM | 2 μM | – | – | CC(C)(C#Cc1ccc(-c2ccc(Cl)c3c(N(C(=O)NCCO)S(C)(=O)=O)nn(CC(F)(F)F)c23)c([C@H](Cc2cc(F)cc(F)c2)NC(=O)Cn2nc(C(F)(F)F)c3c2C(F)(F)[C@@H]2C[C@H]32)n1)S(C)(=O)=O [Compound 40, N—((S)-1-(3-(4-chloro-3-(N-((2-hydroxyethyl)carbamoyl)methylsulfonamido)-1-(2,2,2-trifluoroethyl)-1H-indazol-7-yl)-6-(3-methyl-3-(methylsulfonyl)but-1-yn-1-yl)pyridin-2-yl)-2-(3,5-difluorophenyl)ethyl)-2-((3bS,4aR)-5,5-difluoro-3-(trifluoromethyl)-3b,4,4a,5-tetrahydro-1H-cyclopropa[3,4]cyclopenta[1,2-c]pyrazol-1-yl)acetamide] |
| 1 μM | 4 μM | – | – | C[C@H](O)CNC(=O)N(c1nn(CC(F)(F)F)c2c(-c3ccc(C#CC(C)(C)S(C)(=O)=O)nc3[C@H](Cc3cc(F)cc(F)c3)NC(=O)Cn3nc(C(F)(F)F)c4c3C(F)(F)[C@@H]3C[C@H]43)ccc(Cl)c12)S(C)(=O)=O [Compound 34, N—((S)-1-(3-(4-chloro-3-(N—(((S)-2-hydroxypropyl)carbamoyl)methylsulfonamido)-1-(2,2,2-trifluoroethyl)-1H-indazol-7-yl)-6-(3-methyl-3-(methylsulfonyl)but-1-yn-1-yl)pyridin-2-yl)-2-(3,5-difluorophenyl)ethyl)-2-((3bS,4aR)-5,5-difluoro-3-(trifluoromethyl)-3b,4,4a,5-tetrahydro-1H-cyclopropa[3,4]cyclopenta[1,2-c]pyrazol-1-yl)acetamide] |
| 1/1 μM | 1/1 μM | – | – | COC(=O)C(=O)N(c1nn(CC(F)(F)F)c2c(-c3ccc(C#CC(C)(C)S(C)(=O)=O)nc3[C@H](Cc3cc(F)cc(F)c3)NC(=O)Cn3nc(C(F)(F)F)c4c3C(F)(F)[C@@H]3C[C@H]43)ccc(Cl)c12)S(C)(=O)=O [Compound 15, methyl 2-(N-(4-chloro-7-(2-((S)-1-(2-((3bS,4aR)-5,5-difluoro-3-(trifluoromethyl)-3b,4,4a,5-tetrahydro-1H-cyclopropa[3,4]cyclopenta[1,2-c]pyrazol-1-yl)acetamido)-2-(3,5-difluorophenyl)ethyl)-6-(3-methyl-3-(methylsulfonyl)but-1-yn-1-yl)pyridin-3-yl)-1-(2,2,2-trifluoroethyl)-1H-indazol-3-yl)methylsulfonamido)-2-oxoacetate] |

Reference: patent US12404262B2 (priority 2021, dated 2025)
